Source: patent publication US20080206287A1, “Use of cyclosporin A to sensitize resistant cancer cells to death receptor ligands” (priority 2006, published 2008)
Entries after “also recorded” stand apart in the source; their conditions may differ.

Columns and labels:
Type in all cases: cell-based
FLIP mRNA = FLIP mRNA quantitative RT-PCR; settings: responding and non-responding cell lines
Experimental: Quantitative RT-PCR. The cDNAs encoding the long isoform of FLIPL and GAPDH were amplified using the following primer pairs: 5′-[…]-3′ (forward primer for FLIP; SEQ ID NO:1), 5′-[…]-3′ (reverse primer for FLIP; SEQ ID NO:2), 5′-GAAGGTGAAGGTCGGAGTC-3′ (forward primer for GAPDH; SEQ ID NO:3), and 5′-[…]-3′ (reverse primer for GAPDH; SEQ ID NO:4). Equal amounts of cDNA for each sample were added to a prepared master mix (SYBR Green PCR Master mix, Applied Biosystems, Foster City, Calif.). Real-time quantitative PCR reactions were performed on an ABI Prism 7700 sequence detection system (Applied Biosystems, Foster City, Calif., USA). The relative abundance of a transcript was represented by the threshold cycle of amplification (CT), which is inversely correlated to the amount of target RNA/first strand cDNA being amplified. To normalize for equal amounts of the latter, the transcript levels of the putative housekeeping gene GAPDH were assayed. The comparative CT method was calculated as per manufacturer's instructions. To normalize the CT of FLIP for each sample, the following ratio was calculated: CT(FLIP)/CT(GAPDH). The expression level of FLIP relative to the baseline level was calculated as 2^−ΔΔCT(FLIP), where ΔCT is (average FLIP CT-average GAPDH CT) and ΔΔCT is (average ΔCT untreated sample−average ACT treated sample.
To determine whether the reductions in FLIP protein occurred at the level of mRNA or protein, FLIP mRNA expression was measured by Quantitative RT-PCR in cells treated with 5809354 or buffer control.

PPC-1 cells = experiment: PPC-1 cell viability (MTT) with or without CH-11 anti-FAS antibody; settings: for direct toxicity: compound alone, concentrations up to 80 μM
Experimental: High throughput screening. Screens were performed using a fully integrated, programmable robotic liquid handling system (Biomek® FX, Beckman-Coulter Inc., Fullerton, Calif.), with integrated plate reader (LJL analyst HT 96-384, Sunnyvale, Calif.) and environmentally controlled plate carousel set at 37° C. and 5% CO2:95% air. PPC-1 cells (1×10^4) were seeded overnight into 96 well, flat-bottom plates (Costar, Cambridge, Mass.) in 100 μL of medium containing 2.5% FCS. The next day, aliquots from the 50,000 compound Diversa library were added at a final concentration of 7.5 μg/mL (about 25 μM) in a final concentration of 0.5% (v:v) dimethylsulfoxide (DMSO). CH-11 antibody (100 ng/mL) was then added, and the cells were incubated for 24 hours before assessing cell viability by a 3-(4,5-Dimethylthiazol-2-yl)-2,5-diphenyltetrazolium Bromide (MTT) dye reduction assay (Sigma).
Cell death assays. Cell viability was measured by MTT and MTS assays, essentially as described in Schimmer et al. (Cancer Cell 5:25-35, 2004). Absorbance readings were plotted against a standard curve to derive the corresponding cell number, and cell viability was expressed as a percentage relative to untreated cells. Apoptosis was measured by flow cytometric analysis of Annexin V surface expression after staining cells with FITC-anti-Annexin V and propidium iodide (PI) (Biovision, Mountain View, Calif.), as described in Pedersen et al. (Blood 100:2965-72, 2002).
Statistics. Cytotoxicity induced by compounds used in combination with conventional agents (e.g., CH-11, TRAIL, VP-16 and staurosporine) was evaluated for evidence of synergy toxicity by comparing the slopes of the dose-response curves. If the combination of the potential sensitizing compound with the conventional agent increased the slope of the dose-response curve compared to the slopes of either the sensitizer or the conventional agent alone, then the interaction was considered synergistic. […] Statistical significance was defined as a p<0.01, using two-sided tests. Synergy was confirmed by performing multiple drug dose-effect calculations using the Median Effect methods as described in Chou (“The Median-Effect Principle and the Combination Index for Quantitation of Synergism and Antagonism.” In: D. C. Rideout and T. C. Chou (eds.), Synergism and Antagonism in Chemotherapy, pp. 61-102: Academic Press, Inc., 1991).
Identification of small molecule FAS sensitizers. Resistance to death receptor ligands may permit malignant cells to escape immune surveillance and limit the clinical efficacy of recombinant death receptor ligands such as TRAIL. To identify small molecules that restore sensitivity to death receptor ligands, a cell-based high throughput screen was performed using the FAS and TRAIL-resistant prostate cancer cell line PPC-1 and a commercially available 50,000 compound library. The screens were performed in 96 well plates, to which compounds were added at 7.5 μg/ml (about 25 μM), followed by agonistic anti-FAS monoclonal antibody CH-11 (100 ng/mL). Cell viability was measured 24 hours later by MTT assay. […] The coefficient of variation (CV) for PPC-1 cells treated with CH-11 alone was determined to be 5%, based on 90 replicate determinations. A 50% decrease in cell viability was used as a cut-off for scoring hits.
From the primary screen of 50,000 compounds, 313 reproducible hits were obtained. To determine whether any of the 313 compounds were toxic molecules as opposed to FAS-sensitizers, the 313 compounds were evaluated in secondary screens where PPC-1 cells were treated with increasing concentrations of the compounds in the presence or absence of CH-11 antibody. Through these secondary screens, nine sensitizers were identified that increased CH-11-mediated killing above the cell death produced by treatment of the cells with the compound alone (Table 1). […]

ten tumor cell lines = experiment: CH-11 killing of a spectrum of malignant cell lines; settings: increasing concentrations with or without CH-11
Experimental: Effects of small molecule sensitizers on CH-11 killing of a spectrum of malignant cell lines. To assess the spectrum of activity of the small molecule FAS sensitizers, an additional nine malignant cell lines derived from breast, ovarian, and prostate carcinomas were treated with increasing concentrations of the sensitizers in the presence or absence of CH-11. […] None of the other compounds sensitized more than four of ten tumor lines to CH-11. […] Also, all of the non-responding cell lines, except Colo 205, had detectable levels of FLIP by immunoblotting. Thus, the failure of 609411 and 5809354 to sensitize these tumor lines to anti-FAS antibody was not due to either lack of FAS expression or absence of FLIP, with rare exception.

| SMILES | FLIP mRNA expression (FLIP mRNA) | EC50 (PPC-1 cells; Homo sapiens, PPC-1, PPC1 cells with anti-FAS antibody, read-out: EC50 as a FAS-sensitizer in PPC1 cells) | potency as a FAS-sensitizer relative to 5541203 (PPC-1 cells; PPC1 cells) | toxicity when added alone relative to 5541203 (PPC-1 cells; PPC1 cells, without anti-FAS antibody) | synergy with CH-11, median-dose combination index (CI) (PPC-1 cells; PPC-1 cells, combined with CH-11) | tumor cell lines sensitized to CH-11 (ten tumor cell lines) | direct toxicity (PPC-1 cells; PPC-1 cells) |
| --- | --- | --- | --- | --- | --- | --- | --- |
| CCn1c(=N)n(CC(=O)c2cc(C(C)(C)C)c(O)c(C(C)(C)C)c2)c2ccccc21 [compound 5569100, 1-(3,5-Di-tert-butyl-4-hydroxy-phenyl)-2-(3-ethyl-2-imino-2,3-dihydro-benzoimidazol-1-yl)-ethanone] | did not reduce FLIP mRNA | 5.6 µM | approximately 5 times | three times more toxic | did not demonstrate synergy | – | – |
| O=C(CCCOc1ccc(Cl)cc1Cl)NO [compound 5809354, 4-(2,4-dichlorophenoxy)-N-hydroxybutanamide] | reduced expression of FLIP mRNA; also recorded: decreased FLIP mRNA | – | – | – | – | sensitized the same tumor lines with the exception of HT29 | little direct toxicity |
| CC(=O)CC(=O)Nc1ccc(Cl)c(C(F)(F)F)c1 [compound 6094911, N-[4-chloro-3-(trifluoromethyl)phenyl]-3-oxobutanamide] | did not reduce FLIP mRNA | – | – | – | – | sensitized four of ten tumor cell lines to CH-11; also recorded: sensitizing 4 of 10 tumor lines; also recorded: enhanced FAS-induced killing of several tumor cell lines | little direct toxicity |
